# Assays:
# [1] = test system: rat hepatic stellate cells; test: Low molecular weight DNA fragmentation (nucleosomal ladder) in rat hepatic stellate cells; assay type: cell-based; settings: rat HSC; 1.5 μmol/L; up to four hours
# Description: Hepatic stellate cells cultured in 35-mm diameter dishes (Greiner) were harvested, pelleted by centrifugation and DNA fragmentation determined as outlined elsewhere (Elsharkawy et al., Hepatology (1999) 30:761-769). Propidium Iodide Flow-Activated Cell Sorting Analysis Detached cells were pelleted by centrifugation, washed in PBS, and resuspended in HYPO buffer (0.1% wt/vol) Na3Citrate and 0.1% (wt/vol) Triton™ X-100 containing […] propidium iodide and incubated for 1 hour. The cells were then analyzed by fluorescence-activated cell sorter (FACS) with a Becton Dickinson (San Jose, Calif.) FACScan instrument using a 488 nm excitation wavelength with a band pass filter set at 530 nm. Attached cells were scraped in HYPO buffer after washing cells with PBS.
# The effect of gliotoxin on the cleavage of DNA to a nucleosomal ladder was examined because this phenomenon is characteristic of apoptosis. Culture activated (14-day) rat hepatic stellate cells in six well plates were treated with either 0.05% (vol/vol) DMSO for four hours or 1.5 μmol/L gliotoxin for zero hours, half an hour, one hour, two hours or four hours. At each time point, both detached and attached cells were harvested together and low molecular weight DNA (20,000 g supernatant) fragmentation determined as outlined in the materials and methods section. At least three separate experiments were performed. 1 kilobase DNA ladder (Promega) was used as a molecular weight marker.
# The effect of various compounds on DNA laddering was then determined. Culture-activated (14-day) rat hepatic stellate cells in six-well plates were treated with:
# After fours hours of treatment, DNA fragmentation was determined.
# Culture activated (14 day) rat hepatic stellate cells in six well plates were treated with: • (a) 0.05% (vol/vol) DMSO; • (b) 1.5 μmol/L gliotoxin; • (c) 1.5 μmol/L gliotoxin with 100 μmol/L tamoxifen; • (d) 1.5 μmol/L gliotoxin with […] actinomycin d; • (e) 1.5 μmol/L gliotoxin with 10 μmol/L cycloheximide; • (f) 1.5 μmol/L gliotoxin with 10 μmol/L cyclosporin; • (g) 1.5 μmol/L gliotoxin with […] m-iodobenzylguanidine; • (h) 1.5 μmol/L gliotoxin with 50 μmol/L quin-2-am; • (i) 50 μmol/L guin-2-am alone; • (j) 250 μmol/L m-iodobenzylguanidine; • (k) 10 μmol/L cyclosporin; • (l) 10 μmol/L cycloheximide; • (m) 1 μg/ml actinomycin d; or • (n) 100 μmol/L tamoxifen.
# After four hours of treatment, DNA fragmentation was determined as outlined in Materials and Methods.
# [2] = test system: carbon tetrachloride model of liver fibrosis; test: Carbon tetrachloride (in vivo) model of liver fibrosis, single gliotoxin injection; parameters: species or system rat; settings: for Serum ALP / Serum ALT: killed 24 hours after gliotoxin
# Description: Rats were randomly sorted into groups and treated with 2 mL CCl4:olive oil (1:1 [vol/vol])/kg body weight by intraperitoneal injection twice weekly to cause liver fibrosis. Control animals were treated with 1 mL olive oil/kg body weight by intraperitoneal injection. Gliotoxin was administered at up to 3 mg gliotoxin/kg body weight by intraperitoneal injection. Gliotoxin was dissolved in dimethyl sulfoxide (DMSO) as a vehicle, and control animals received DMSO alone.
# At the required time, rats were killed by carbon dioxide asphyxiation and tissues removed for analysis. Serum was prepared and analyzed for alkaline phosphatase and alanine aminotransferase activities essentially as previously described. (Wright et al., Biochem. Pharmacol., (1992) 43:237-243) Histochemical staining of formalin-fixed liver sections with H&E, Sirius red, and immunochemical staining for α-smooth muscle actin were performed essentially as previously described (Iredale et al.,—1998—supra)
# The effect of a single injection of gliotoxin on α-smooth muscle actin liver immunostaining after treatment for seven weeks with carbon tetrachloride was then determined. One day after the final injection of carbon tetrachloride, rats were administered gliotoxin and killed after a further day.
# The effect of a single injection of gliotoxin on liver TUNEL staining after treatment for seven weeks with carbon tetrachloride was measured. One day after the final injection of carbon tetrachloride, rats were administered gliotoxin and then killed after a further day. Control animals received DMSO alone in place of gliotoxin. Liver sections from the rats were TUNEL stained with or without the incorporation of dUTP in the staining protocol. Sections were then counterstained with hematoxylin.
# The effect of a single injection of gliotoxin on liver sirius red staining after treatment for seven weeks with carbon tetrachloride was then determined. As before, one day after the final injection of carbon tetrachloride, rats were administered gliotoxin and killed after a further day.
# [3] = test system: intracellular Ca2+ in rat hepatic stellate cells; test: Confocal microscopy of fluo-3 (intracellular calcium); assay type: cell-based; settings: 1.5 μmol/L gliotoxin
# Description: Intracellular calcium concentrations were examined by preloading activated hepatic stellate cells seeded onto 35-mm diameter dishes with 2.5 μmol/L Fluo-3AM for two hours. Mitochondrial integrity was determined by coloading cells with […] TMRM and 1 μmol/M calcein-AM for three hours. After loading, the culture medium was removed and the cells were washed extensively with confocal buffer (145 mmol/L NaCl, 5 mml/L KCl, 1 mmol/L MgSO4, 1 mmol/L NaH2PO4, 10 mmol/L HEPES, 25 mmol/L glucose, 1 mmol/L CaCl2 and 2 mg/mL bovine serum albumin, pH 7.4) and incubated at 37° C. in 2 mL confocal buffer containing 1.5 μmol/L gliotoxin or DMSO vehicle control.
# Fluo-3 and calcein fluorescence were excited at 488 nm and collected at 515-530 nm using a band width filter. TMRM was excited at 543 nm and collected at wavelengths greater than 570 nm.
# MPT results in futile Ca^2+ cycling by mitochondria, which enhances the likelihood of cell death (Crompton et al., Biochem. J. (1999) 341: 233-249). The role of the MPT in the late events of gliotoxin apoptosis was also therefore assessed by measuring intracellular calcium levels. Culture-activated (14-day) rat hepatic stellate cells in six-well plates were loaded with fluo-3 and fluorescence imaged as outlined in the Materials and methods section after treatment with DMSO control or 1.5 μmol/L gliotoxin.
# [4] = single gliotoxin injection 0.3 mg/kg i.p., CCl4 twice weekly seven weeks
# [5] = single gliotoxin injection 0.3 mg/kg i.p., no CCl4 (olive oil seven weeks)
# [6] = single gliotoxin injection 3 mg/kg i.p., CCl4 twice weekly seven weeks
# [7] = single gliotoxin injection 3 mg/kg i.p., no CCl4 (olive oil seven weeks)
smiles,measurement,setting,value
CN1C(=O)[C@]23CC4=CC=C[C@H](O)[C@H]4N2C(=O)[C@@]1(CO)SS3 [gliotoxin],cleavage of DNA to a nucleosomal ladder,[1],time dependent increase in DNA cleavage to a nucleosomal ladder
same,reduction in number of α-smooth muscle actin-positive cells in CCl4 treated rat liver,[2]; single dose of 3 mg/kg body wt,57%
same,Liver α-sma staining (number of α-sma-positive cells),[2]; [4],35 ± 11.4
same,Sirius red staining (mid intralobular μm),[2]; [4],9 ± 2.3 μm
same,Serum ALP,[2]; [4],790 ± 128 μ/mL
same,Serum ALT,[2]; [4],1310 ± 342 μ/mL
same,Liver α-sma staining (number of α-sma-positive cells),[2]; [5],2.5 ± 0.70
same,Sirius red staining (mid intralobular μm),[2]; [5],0 μm
same,Serum ALP,[2]; [5],336 ± 48 μ/mL
same,Serum ALT,[2]; [5],59 ± 4 μ/mL
same,Liver α-sma staining (number of α-sma-positive cells),[2]; [6],16 ± 6.4
same,Sirius red staining (mid intralobular μm),[2]; [6],7 ± 3.6^£ μm
same,Serum ALP,[2]; [6],755 ± 295 μ/mL
same,Serum ALT,[2]; [6],1740 ± 1100 μ/mL
same,Liver α-sma staining (number of α-sma-positive cells),[2]; [7],1.2 ± 0.24
same,Sirius red staining (mid intralobular μm),[2]; [7],0 μm
same,Serum ALP,[2]; [7],269 ± 25 μ/mL
same,Serum ALT,[2]; [7],50 ± 5 μ/mL
same,TUNEL-positive cells in liver regions staining for α-smooth muscle actin,[2]; single gliotoxin injection after seven weeks CCl4,increase in the number of TUNEL-positive cells
same,fibrosis on blinded examination of sirius red stained liver sections,[2]; single injection of gliotoxin at 3 mg/kg after seven weeks CCl4,significantly reduced fibrosis
same,change in serum liver enzyme levels,[2]; single injection of gliotoxin to control or carbon tetrachloride treated rats,did not result in any significant change in serum liver enzyme levels
same,intracellular Ca2+ levels,[3],do not rise until two hours of incubation

# Reference: patent US20080220056A1, “Treatment for liver disease” (UNIVERSITY OF SOUTHAMPTON, priority 2002, published 2008)
